{"source": "patent US11026914B2", "about": "(DelMar Pharmaceuticals, Inc., priority 2013, dated 2021)", "key": {"GBM": {"system": "GBM", "settings": "cited from earlier work"}, "[1]": {"system": "progressive secondary brain tumor", "experiment": "Phase I/II dose-escalation study: tumor response in progressive secondary brain tumor patients", "assay_type": "in vivo, human", "settings": "n = 6", "description": "(2) There is evidence of leptomeningeal spread of disease.\nOutcomes analysis of cohort 6 is ongoing."}, "[2]": {"experiment": "Plasma pharmacokinetics in brain tumor patients after IV infusion (WinNonlin non-compartmental analysis)", "assay_type": "in vivo, human", "settings": "for dose dependence of systemic exposure: dose escalation in patients", "protocol": "Plasma drug concentration analysis data were analyzed using WinNonlin®, version 2.1A software (Pharsight Inc., Mountain View, Calif.) and Microsoft Office Excel 2007. Pharmacokinetic analysis was conducted by Dr. Sarath Kanekal, Ph.D. Use of MS Excel was limited to receipt of raw data, transfer into WinNonlin and generation of tables (Mean and SD) and graphs for the report.\nThe starting dose for Cohort #1 was 1.5 mg/m^2 IV daily×3 every 21 days. Cohorts 2 and 3 received DAG at doses of 3.0 and 5.0 mg/m^2 IV daily×3 every 21 days, respectively; cohort 4 received 10 mg/m^2. Dose escalation beyond 10 mg/m^2, up to 40 mg/m^2 IV daily×3 every 21 days is planned in the ongoing trial. Sample collection was on Day 1 at each dose level at the following time points: pre-dose, and 0.25, 0.5, 1, 2, 4, 6 h 15±5 minutes, 30±5 minutes, 60±10 minutes, 120±10 minutes, 240±15 minutes, and 360±15 minutes after the end of the IV study drug administration and immediately prior to Cycle 1, Day 2 of dosing. Drug concentration data was received from at least 3 patients for cohorts 1, 2 and 3, but only from 2 patients in cohort 4.\nFor the purposes of this interim analysis a fixed constant infusion time of 30 minutes and nominal collection time intervals were used for all patients. […] For the final PK analysis individual patient infusion time and exact collection time are used.\nPharmacokinetic analyses were performed on the plasma concentration versus time data using WinNonlin (Ver 2.1A) via non-compartmental analysis (NCA). A model for constant infusion (WinNonlin Model #202) was used for the analyses. Uniform weighting was used for all data. AUCall was calculated by the linear trapezoid rule and t1/2 of lambda z was used for estimating the terminal half-life. The last 2 or 3 concentrations above LLOQ were used for calculating lambda z. For clearance (CL) and Volume of Distribution (Vz), observed CL and observed Vz values outputted by WinNonlin are reported here. All plasma concentrations measurements reported as below the limit of quantitation (BLQ) was set equal to zero, and those reported as NS (no sample), if any, were left blank and treated as missing. Mean concentration and WinNonlin derived parameters are presented with standard deviation."}, "[3]": {"system": "GBM cell lines SF188, U251, and T98G", "experiment": "Inhibition of tumor cell growth in GBM cell lines (FIG. 1, FIG. 6)", "assay_type": "cell-based, human", "settings": "independent of MGMT"}, "[4]": {"system": "intracranial U251 human glioma tumors", "description": "However, TMZ-resistance has emerged as a significant unmet medical need, as DNA repair enzyme O^6-methylguanine DNA methyltransferase (MGMT) removes the methyl-group adducts caused by TMZ. […] We thus sought to investigate how our CSC and non-CSC panel would respond to VAL-083 alone or in combination with XRT. We further investigated the activity of VAL-083 in in vivo models of drug-resistant GBM in comparison to TMZ. Rag2 mice bearing intracranial human GBM xenograft tumors of either MGMT-positive and TMZ-resistant origin (BT74), or MGMT-negative and TMZ-sensitive origin (U251) were treated. VAL-083 was given i.p. 3 times/week×3 weeks, and the efficacy of VAL-083 in controlling tumor growth compared to TMZ (30 mg/kg). Disease progression was evaluated by overall survival, clinical observations and body weight measurements.\nOn study day 0 for each set of mice, 44 female Rag2 mice were inoculated intracranially in the right caudate-putamen nucleus (coordinates: ML-1.5 mm; AP 1 mm; DV −3.5 mm) with 7.5×10^4 U251 human glioma cells."}, "[5]": {"settings": "human, in vivo", "quoted_text": "(§1) The study utilizes a 3+3 dose escalation design, until the MTD or the maximum specified dose is reached. […] In Phase II, additional patients will be treated at the MTD (or other selected optimum Phase II dose) to measure tumor responses. […] For these studies, the following is a summary of the inclusion criteria: (1) Patients must be greater than or equal to 18 years old. […] The following is a summary of the exclusion criteria: (1) There is a current history of neoplasm other than the entry diagnosis. Patients with previous cancers treated and cured with local therapy alone may be considered. (2) There is evidence of leptomeningeal spread of disease.\nOpen-label, single-arm Phase I/II dose-escalation study in patients with histologically-confirmed initial diagnosis of primary WHO Grade IV malignant glioma (glioblastoma). […] The study utilizes a 3+3 dose-escalation design."}, "[6]": {"system": "cancer stem cells (BT74, GBM4 and GBM8)", "settings": "BT74, GBM4 and GBM8, neurosphere growth assays; cited from earlier work"}, "[7]": {"system": "normal human neural stem cells", "settings": "neurosphere growth assays; cited from earlier work"}, "[8]": {"system": "recurrent glioblastoma multiforme (GBM)", "experiment": "Phase I/II dose-escalation study: tumor response (RANO) in recurrent GBM patients", "quoted_text": "as §1\nHigher doses may be enrolled subject to completion of mandated safety observation period with Cohort 6 (30 mg/m^2). Patients enrolled present with refractory progressive GBM and a dire prognosis. […] The primary endpoint of this portion of the study is to determine a modernized dosing regimen for advancement to registration-directed clinical trials. […] In this design, it is not possible to perform a rigorous assessment of patient benefit due to slowed tumor growth. Tumor volume is assessed during the study based on RANO criteria.\nOpen-label, single-arm Phase I/II dose-escalation study in patients with histologically-confirmed initial diagnosis of primary WHO Grade IV malignant glioma (glioblastoma). […] The study utilizes a 3+3 dose-escalation design. […] The RANO (Response Assessment in Neuro-Oncology) criteria divide responses into four general categories: complete response, partial response, stable disease, and regression."}, "[9]": {"target": "glycogen synthase kinase-3β (GSK-3β) (Homo sapiens, UniProt P49841)", "sequence (P49841 whole entry, species assumed)": "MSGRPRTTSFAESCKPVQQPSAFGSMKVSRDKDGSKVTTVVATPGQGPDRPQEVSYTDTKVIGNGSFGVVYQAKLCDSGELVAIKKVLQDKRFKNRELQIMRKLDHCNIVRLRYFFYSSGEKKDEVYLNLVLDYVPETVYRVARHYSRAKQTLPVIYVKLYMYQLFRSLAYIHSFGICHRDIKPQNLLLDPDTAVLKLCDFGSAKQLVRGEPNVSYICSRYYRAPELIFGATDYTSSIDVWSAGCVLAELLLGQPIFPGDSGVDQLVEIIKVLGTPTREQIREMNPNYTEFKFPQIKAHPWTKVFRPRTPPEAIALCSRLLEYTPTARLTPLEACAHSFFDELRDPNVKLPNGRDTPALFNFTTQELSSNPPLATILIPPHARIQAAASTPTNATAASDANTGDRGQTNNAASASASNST", "settings": "cited from earlier work"}}, "note": "Where two headings read alike, the source gives them in different places.", "data": [{"smiles": "O=NN(CCCl)C(=O)NCCCl", "note": "[Carmustine]", "values": [{"measurement": "Median O.S. (XRT + Chemo)", "setting": "GBM; GBM, historical data", "result": "40-50 weeks"}, {"measurement": "Nadir", "setting": "GBM; human, in vivo", "result": "21 to 35", "unit": "days"}]}, {"smiles": "O[C@H]([C@H](O)[C@@H]1CO1)[C@H]1CO1", "note": "[dianhydrogalactitol]", "values": [{"measurement": "Tumor Response, Overall", "setting": "[1]", "result": 17, "unit": "%"}, {"measurement": "Tumor Response, type (number of patients)", "setting": "[1]", "result": "SD (1)"}, {"measurement": "average Cmax", "setting": "[2]; 10 mg/m^2", "result": "< 200", "unit": "ng/mL"}, {"measurement": "Cmax", "setting": "[2]; 20 mg/m^2, average", "result": 180, "unit": "ng/mL"}, {"measurement": "AUC", "setting": "[2]; Cohort 1, 1.5 mg/m^2", "result": 18.9, "unit": "ng·h/mL"}, {"measurement": "Cmax", "setting": "[2]; Cohort 1, 1.5 mg/m^2", "result": 16.5, "unit": "ng/mL"}, {"measurement": "Tmax", "setting": "[2]; Cohort 1, 1.5 mg/m^2", "result": 15, "unit": "min"}, {"measurement": "t-½", "setting": "[2]; Cohort 1, 1.5 mg/m^2", "result": 2.02, "unit": "h"}, {"measurement": "AUC", "setting": "[2]; Cohort 2, 3 mg/m^2", "result": 48.5, "unit": "ng·h/mL"}, {"measurement": "Cmax", "setting": "[2]; Cohort 2, 3 mg/m^2", "result": 46.4, "unit": "ng/mL"}, {"measurement": "Tmax", "setting": "[2]; Cohort 2, 3 mg/m^2", "result": 15, "unit": "min"}, {"measurement": "t-½", "setting": "[2]; Cohort 2, 3 mg/m^2", "result": 0.83, "unit": "h"}, {"measurement": "AUC", "setting": "[2]; Cohort 3, 5 mg/m^2", "result": 108.0, "unit": "ng·h/mL"}, {"measurement": "Cmax", "setting": "[2]; Cohort 3, 5 mg/m^2", "result": 80.5, "unit": "ng/mL"}, {"measurement": "Tmax", "setting": "[2]; Cohort 3, 5 mg/m^2", "result": 15, "unit": "min"}, {"measurement": "t-½", "setting": "[2]; Cohort 3, 5 mg/m^2", "result": 1.27, "unit": "h"}, {"measurement": "AUC", "setting": "[2]; Cohort 4, 10 mg/m^2", "result": 191.7, "unit": "ng·h/mL"}, {"measurement": "Cmax", "setting": "[2]; Cohort 4, 10 mg/m^2", "result": 172.0, "unit": "ng/mL"}, {"measurement": "Tmax", "setting": "[2]; Cohort 4, 10 mg/m^2", "result": 15, "unit": "min"}, {"measurement": "t-½", "setting": "[2]; Cohort 4, 10 mg/m^2", "result": 1.19, "unit": "h"}, {"measurement": "time of peak concentration after initiation of the intravenous infusion", "setting": "[2]; all dose levels 1.5-10 mg/m^2", "result": 0.25}, {"measurement": "time for plasma concentrations to return to near baseline after dosing", "setting": "[2]; cohorts 1-4", "result": "≤ 8", "unit": "h"}, {"measurement": "dose dependence of systemic exposure", "setting": "[2]", "result": "dose-dependent linear systemic exposure"}, {"measurement": "dose dependence of systemic exposure", "setting": "[2]; listed as DAG", "result": "more than dose proportional increase in exposure"}, {"measurement": "dose dependence of systemic exposure", "setting": "[2]; listed as Dianhydrogalactitol", "result": "dose-dependent increase in exposure"}, {"measurement": "dose dependence of systemic exposure", "setting": "[2]; listed as VAL-083", "result": "dose-dependent linear systemic exposure"}, {"measurement": "plasma half-life", "setting": "[2]; patients, IV", "result": "60 to 120", "unit": "min"}, {"measurement": "plasma terminal half-life", "setting": "[2]; patients, IV", "result": "60 to 120", "unit": "min"}, {"measurement": "inhibition of tumor (cell) growth compared with TMZ", "setting": "[3]", "result": "better than TMZ"}, {"measurement": "median survival time", "setting": "[4]; 3 mg/kg i.p. 3 times/week x 3 weeks", "result": 54, "unit": "days"}, {"measurement": "median survival time", "setting": "[4]; 4 mg/kg i.p. 3 times/week x 3 weeks", "result": 72, "unit": "days"}, {"measurement": "median survival time", "setting": "[4]; 5 mg/kg i.p., 4 doses only", "result": 57, "unit": "days"}, {"measurement": "maximum tolerated dose (MTD), as 33 day cycle cumulative dose", "setting": "[5]", "result": "> 120", "unit": "mg/m^2"}, {"measurement": "inhibition of growth of cancer stem cells", "setting": "[6]", "result": "80-100%"}, {"measurement": "Recovery", "setting": "GBM; GBM, historical data", "result": "Within 7-8 days"}, {"measurement": "efficacy in combination with radiation versus radiation alone", "setting": "GBM; human, in vivo, iv", "result": "superior to radiation alone"}, {"measurement": "DLT", "setting": "GBM; human, in vivo", "result": "Hematologic"}, {"measurement": "Median O.S. (XRT + Chemo)", "setting": "GBM; human, in vivo", "result": 67, "unit": "weeks"}, {"measurement": "Nadir", "setting": "GBM; human, in vivo", "result": "18 to 21", "unit": "days"}, {"measurement": "Other Severe Toxicities Reported (>2%)", "setting": "GBM; human, in vivo", "result": "None"}, {"measurement": "effect on normal human neural stem cells", "setting": "[7]", "result": "minimal effect"}, {"measurement": "tumor response in cohort 6", "setting": "[8]; 30 mg/m^2, after 1 cycle, one of two patients", "result": "exhibited stable disease"}, {"measurement": "Tumor Response, Overall", "setting": "[8]; GBM patients, n = 8", "result": 25, "unit": "%"}, {"measurement": "Tumor Response, type (number of patients)", "setting": "[8]; GBM patients, n = 8", "result": "PR (1); SD"}, {"measurement": "MRI scans, abnormal enhancement", "setting": "[8]; Patient #26, T=0 vs T=64 days, after two cycles", "result": "Thick confluent regions of abnormal enhancement have diminished"}, {"measurement": "patients exhibiting a response (stable disease or partial response)", "setting": "[8]; early cohorts, Example 1", "result": "Two patients exhibiting a response"}]}, {"smiles": "CN1C(=O)/C(=C2/C(=O)Nc3ccccc32)c2ccccc21", "note": "[meisoindigo]", "values": [{"measurement": "concentration for inhibition of GSK-3β", "setting": "[9]", "result": "5 to 50", "unit": "nM"}]}, {"smiles": "Cn1nnc2c(C(N)=O)ncn2c1=O", "note": "[temozolomide]", "values": [{"measurement": "day of termination at the end of the study", "setting": "[4]; TMZ 30 mg/kg", "result": 102, "unit": "days"}, {"measurement": "DLT", "setting": "GBM; GBM, historical data", "result": "Hematologic"}, {"measurement": "Nadir", "setting": "GBM; GBM, historical data", "result": "21 to 28", "unit": "days"}, {"measurement": "Recovery", "setting": "GBM; GBM, historical data", "result": "Within 14 days"}]}]}
